{
  "source": "patent US20140275063A1",
  "about": "“NEW ENZYME INHIBITOR COMPOUNDS” (PROXIMAGEN LIMITED, priority 2011, published 2014)",
  "note": "Where a name gives a salt, the structure may show the parent alone.",
  "data": [
    {"target": "T1, human SSAO (Homo sapiens, UniProt Q16853)", "T1 construct": "made in house", "T1 sequence (Q16853 29-763 limits assumed)": "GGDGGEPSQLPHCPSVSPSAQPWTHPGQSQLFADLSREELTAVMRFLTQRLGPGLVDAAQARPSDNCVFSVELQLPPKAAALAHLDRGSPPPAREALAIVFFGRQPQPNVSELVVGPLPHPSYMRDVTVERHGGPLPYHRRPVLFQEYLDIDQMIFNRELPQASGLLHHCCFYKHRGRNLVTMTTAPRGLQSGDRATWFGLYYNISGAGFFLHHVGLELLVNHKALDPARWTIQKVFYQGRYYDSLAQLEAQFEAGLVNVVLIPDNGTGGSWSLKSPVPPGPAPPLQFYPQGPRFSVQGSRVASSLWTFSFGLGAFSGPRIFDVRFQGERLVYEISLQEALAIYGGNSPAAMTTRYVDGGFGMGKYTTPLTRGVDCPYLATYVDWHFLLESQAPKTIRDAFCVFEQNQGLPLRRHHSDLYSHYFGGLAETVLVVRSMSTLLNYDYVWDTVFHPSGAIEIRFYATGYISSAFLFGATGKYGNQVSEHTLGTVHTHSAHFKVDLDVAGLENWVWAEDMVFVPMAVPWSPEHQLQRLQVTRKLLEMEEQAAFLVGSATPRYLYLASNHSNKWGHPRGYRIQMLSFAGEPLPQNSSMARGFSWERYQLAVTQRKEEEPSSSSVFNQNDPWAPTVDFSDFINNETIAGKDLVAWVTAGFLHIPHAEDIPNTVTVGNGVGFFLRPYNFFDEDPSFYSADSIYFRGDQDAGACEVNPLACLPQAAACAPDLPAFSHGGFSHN", "assay": "SSAO inhibitory activity (HRP-coupled hydrogen peroxide detection or 14C-benzaldehyde detection, benzylamine substrate)", "format": "biochemical", "conditions": "purified recombinantly expressed human SSAO, benzylamine as substrate, RT", "experimental": "All primary assays were performed at RT. with purified recombinantly expressed human SSAO. Enzyme was prepared essentially as described in Öhman et al. (Protein Expression and Purification 46 (2006) 321-331). In addition, secondary- and selectivity assays were performed using SSAO prepared from various tissues or purified rat recombinant SSAO. The enzyme activity was assayed with benzylamine as substrate by measuring either benzaldehyde production, using ^14C-labeled substrate, or by utilizing the production of hydrogen peroxide in a horseradish peroxidase (HRP) coupled reaction. Briefly, test compounds were dissolved in dimethyl sulfoxide (DMSO) to a concentration of 10 mM. Dose-response measurements were assayed by either creating 1:10 serial dilutions in DMSO to produce a 7 point curve or by making 1:3 serial dilutions in DMSO to produce 11 point curves. The top concentrations were adjusted depending on the potency of the compounds and subsequent dilution in reaction buffer yielded a final DMSO concentration ≦2%.\nIn a horseradish peroxidase (HRP) coupled reaction, hydrogen peroxide oxidation of 10-acetyl-3,7-dihydroxyphenoxazine produced resorufin, which is a highly fluorescent compound (Zhout and Panchuk-Voloshina. Analytical Biochemistry 253 (1997) 169-174; Amplex® Red Hydrogen Peroxideperoxidase Assay kit, Invitrogen A22188). Enzyme and compounds in 50 mM sodium phosphate, pH 7.4 were set to pre-incubate in flat-bottomed microtiter plates for approximately 15 minutes before initiating the reaction by addition of a mixture of HRP, benzylamine and Amplex reagent. Benzylamine concentration was fixed at a concentration corresponding to the Michaelis constant, determined using standard procedures. Fluorescence intensity was then measured at several time points during 1-2 hours, exciting at 544 nm and reading the emission at 590 nm. For the human SSAO assay final concentrations of the reagents in the assay wells were: SSAO enzyme 1 μg/ml, benzylamine 100 μM, Amplex reagent 20 μM, HRP 0.1 U/mL and varying concentrations of test compound. The inhibition was measured as % decrease of the signal compared to a control without inhibitor (only diluted DMSO). The background signal from a sample containing no SSAO enzyme was subtracted from all data points. Data was fitted to a four parameter logistic model and IC50 values were calculated using the Graph Pad Prism 4 or XLfit 4 programs.\nSSAO activity was assayed using 14C-labeled benzylamine and analysed by measuring radioactive benzaldehyde. In a white 96-well optiplate (Packard), 20 μL of diluted test compound was pre-incubated at RT. with 20 μL SSAO enzyme for approximately 15 minutes with continuous agitation. All dilutions were made with PBS. The reaction was initiated by adding 20 μL of the benzylamine substrate solution containing [7-14C] Benzylamine hydrochloride (CFA589, GE Healthcare). The plate was incubated for 1 hour as above after which the reaction was stopped by acidification (10 μL 1 M HCl). Then 90 μL Micro Scint-E solution (Perkin-Elmer) was added to each well and the plate was continuously mixed for 15 minutes. Phase separation occurred instantly and activity was read in a Topcount scintillation counter (Perkin-Elmer). In the final reaction well, the human recombinant SSAO concentration was 10 μg/ml. In order to optimize sensitivity, the substrate concentration was decreased as compared to the HRP coupled assay in order to get a higher fraction of radioactive product. In the human SSAO assay, benzylamine concentration was 40 μM (0.2 μCi/mL). Data was analysed as above.", "units": {"IC50": "nM"}, "values": [
      {"smiles": "Clc1ccc(-n2cc(C3CCN(CC4CCNCC4)CC3)c3ccncc32)cc1", "note": "[Compound 3, 4-[1-(4-Chlorophenyl)-1H-pyrrolo[2,3-c]pyridin-3-yl]-1-(piperidin-4-ylmethyl) piperidine]", "IC50": "100 to 500"},
      {"smiles": "COCCN1CCN(C(=O)N2CCC(c3cn(-c4ccc(Cl)cc4)c4cnccc34)CC2)CC1", "note": "[Compound 18, 1-({4-[1-(4-Chlorophenyl)-1H-pyrrolo[2,3-c]pyridin-3-yl]piperidin-1-yl}carbonyl)-4-(2-methoxyethyl) piperazine]", "IC50": "< 100"},
      {"smiles": "NCCCOC(=O)N1CCN(CC2CN(c3nn(-c4ccc(Cl)cc4)c4cnccc34)CCO2)CC1", "note": "(stereo not drawn) [Compound 37, 3-Aminopropyl 4-({4-[1-(4-chlorophenyl)-1H-pyrazolo[3,4-c]pyridin-3-yl]morpholin-2-yl}methyl)piperazine-1-carboxylate trihydrochloride]", "IC50": "100 to 500"},
      {"smiles": "O=C(O)CC1COCCN1c1nn(-c2ccc(Cl)cc2)c2cnccc12", "note": "(stereo not drawn) [Compound 53, 2-{4-[1-(4-Chlorophenyl)-1H-pyrazolo[3,4-c]pyridin-3-yl]morpholin-3-yl}acetic acid hydrochloride]", "IC50": "500 to 2500"},
      {"smiles": "O=C(NC1CCNCC1)N1CCC(c2cn(-c3ccc(Cl)cc3)c3cnccc23)CC1", "note": "[Compound 7, 4-[1-(4-Chlorophenyl)-1H-pyrrolo[2,3-c]pyridin-3-yl]-N-(piperidin-4-yl) piperidine-1-carboxamide]", "IC50": "< 100"},
      {"smiles": "Clc1ccc(-n2cc(C3CCN(C4CCNC4)CC3)c3ccncc32)cc1", "note": "(stereo not drawn) [Compound 1, 4-[1-(4-Chlorophenyl)-1H-pyrrolo[2,3-c]pyridin-3-yl]-1-(pyrrolidin-3-yl)piperidine]", "IC50": "< 100"},
      {"smiles": "Cc1ccc(-n2nc(N3CCOC(CNCCN)C3)c3ccncc32)cc1", "note": "(stereo not drawn) [Compound 33, (2-Aminoethyl)({4-[1-(4-methylphenyl)-1H-pyrazolo[3,4-c]pyridin-3-yl]morpholin-2-yl}methyl)amine trihydrochloride]", "IC50": "100 to 500"},
      {"smiles": "CCN1CCC(CNC(=O)N2CCC(c3cn(-c4ccc(Cl)cc4)c4cnccc34)CC2)CC1", "note": "[Compound 12, 4-[1-(4-Chlorophenyl)-1H-pyrrolo[2,3-c]pyridin-3-yl]-N-[(1-ethylpiperidin-4-yl)methyl] piperidine-1-carboxamide]", "IC50": "< 100"},
      {"smiles": "NC(=O)CN1CCC(CNC(=O)N2CCC(c3cn(-c4ccc(Cl)cc4)c4cnccc34)CC2)CC1", "note": "[Compound 14, N-{[1-(Carbamoyl-methyl)piperidin-4-yl]methyl}-4-[1-(4-chlorophenyl)-1H-pyrrolo[2,3-c]pyridin-3-yl] piperidine-1-carboxamide; formic acid]", "IC50": "< 100"},
      {"smiles": "Clc1ccc(-n2nc(NCCN3CCNCC3)c3ccncc32)cc1", "note": "[Compound 45, 1-(4-Chlorophenyl)-N-[2-(piperazin-1-yl)ethyl]-1H-pyrazolo[3,4-c]pyridin-3-amine]", "IC50": "100 to 500"},
      {"smiles": "O=C(NCC1CNCCO1)N1CCC(c2cn(-c3ccc(Cl)cc3)c3cnccc23)CC1", "note": "(stereo not drawn) [Compound 20, 4-[1-(4-Chlorophenyl)-1H-pyrrolo[2,3-c]pyridin-3-yl]-N-(morpholin-2-ylmethyl) pipendine-1-carboxamide]", "IC50": "< 100"},
      {"smiles": "Cc1ccc(-n2nc(N3CCOC(COCCN)C3)c3ccncc32)cc1", "note": "(stereo not drawn) [Compound 32, 2-({4-[1-(4-Methylphenyl)-1H-pyrazolo[3,4-c]pyridin-3-yl]morpholin-2-yl}methoxy)ethan-1-amine]", "IC50": "100 to 500"},
      {"smiles": "CN1CCN(CCNc2nn(-c3ccc(Cl)cc3)c3cnccc23)CC1", "note": "[Compound 46, 1-(4-Chlorophenyl)-N-[2-(4-methylpiperazin-1-yl)ethyl]-1H-pyrazolo[3,4-c]pyridin-3-amine]", "IC50": "100 to 500"},
      {"smiles": "CN1CCN(C(=O)N2CCC(c3cn(-c4ccc(Cl)cc4)c4cnccc34)CC2)CC1", "note": "[Compound 5, 1-({4-[1-(4-Chlorophenyl)-1H-pyrrolo[2,3-c]pyridin-3-yl]piperidin-1-yl}carbonyl)-4-methylpiperazine]", "IC50": "< 100"},
      {"smiles": "O=C(NCc1nn[nH]n1)N1CCC(c2cn(-c3ccc(Cl)cc3)c3cnccc23)CC1", "note": "[Compound 61, 4-[1-(4-Chlorophenyl)-1H-pyrrolo[2,3-c]pyridin-3-yl]-N-(2H-1,2,3,4-tetrazol-5-ylmethyl)piperidine-1-carboxamide; trifluoroacetic acid]", "IC50": "< 100"},
      {"smiles": "Cc1ccc(-n2nc(N3CCOC(CNC(=O)NC4CC4)C3)c3ccncc32)cc1", "note": "(stereo not drawn) [Compound 31, 3-Cyclopropyl-1-({4-[1-(4-methylphenyl)-1H-pyrazolo[3,4-c]pyridin-3-yl]morpholin-2-yl}methyl)urea]", "IC50": "< 100"},
      {"smiles": "O=C(CC1CCNCC1)N1CCC(c2cn(-c3ccc(Cl)cc3)c3cnccc23)CC1", "note": "[Compound 4, 1-{4-[1-(4-Chlorophenyl)-1H-pyrrolo[2,3-c]pyridin-3-yl]piperidin-1-yl}-2-(piperidin-4-yl)ethan-1-one]", "IC50": "< 100"},
      {"smiles": "CCNC(=O)N1CCN(CC2CN(c3nn(-c4ccc(Cl)cc4)c4cnccc34)CCO2)CC1", "note": "(stereo not drawn) [Compound 39, 4-({4-[1-(4-Chlorophenyl)-1H-pyrazolo[3,4-c]pyridin-3-yl]morpholin-2-yl}methyl)-N-ethylpiperazine-1-carboxamide]", "IC50": "100 to 500"},
      {"smiles": "CC(C)N1CCN(C(=O)N2CCC(c3cn(-c4ccc(Cl)cc4)c4cnccc34)CC2)CC1", "note": "[Compound 17, 1-({4-[1-(4-Chlorophenyl)-1H-pyrrolo[2,3-c]pyridin-3-yl]piperidin-1-yl}carbonyl)-4-(propan-2-yl)piperazine]", "IC50": "< 100"},
      {"smiles": "Clc1ccc(-n2nc(N3CCC(CNCC4CCNCC4)CC3)c3ccncc32)cc1", "note": "[Compound 50, ({1-[1-(4-Chlorophenyl)-1H-pyrazolo[3,4-c]pyridin-3-yl]piperidin-4-yl}methyl)(piperidin-4-ylmethyl)amine]", "IC50": "100 to 500"},
      {"smiles": "CN(C)[C@H]1CCN(C(=O)CC2COCCN2c2nn(-c3ccc(Cl)cc3)c3cnccc23)C1", "note": "(stereo partly drawn) [Compound 56, 2-{4-[1-(4-Chlorophenyl)-1H-pyrazolo[3,4-c]pyridin-3-yl]morpholin-3-yl}-1-[(3S)-3-(dimethylamino)pyrrolidin-1-yl] ethan-1-one]", "IC50": "< 100"},
      {"smiles": "CN1CCN(CC2CN(c3nn(-c4ccc(Cl)cc4)c4cnccc34)CCO2)CC1", "note": "(stereo not drawn) [Compound 35, 4-[1-(4-Chlorophenyl)-1H-pyrazolo[3,4-c]pyridin-3-yl]-2-[(4-methylpiperazin-1-yl)methyl]morpholine]", "IC50": "100 to 500"},
      {"smiles": "Cc1ccc(-n2nc(N3CCOC(CN4CCOCC4)C3)c3ccncc32)cc1", "note": "(stereo not drawn) [Compound 34, 4-[1-(4-Methylphenyl)-1H-pyrazolo[3,4-c]pyridin-3-yl]-2-(morpholin-4-ylmethyl)morpholine]", "IC50": "100 to 500"},
      {"smiles": "Clc1ccc(-n2nc(N3CCC(CN4CCNCC4)CC3)c3ccncc32)cc1", "note": "[Compound 49, 1-({1-[1-(4-Chlorophenyl)-1H-pyrazolo[3,4-c]pyridin-3-yl]piperidin-4-yl}methyl)piperazine]", "IC50": "100 to 500"}
    ]}
  ]
}
